According to patent publication US6703388B2, “Nitrogen-containing tricyclic compounds and drugs containing the same” (Eisai Co., Ltd., priority 1996, dated 2004):
Read-outs that look alike come from different tables or passages of the source.

Experiments:
RBL-2H3 cells = test: Inhibition of serotonin liberation from IgE-sensitized RBL-2H3 cells after antigen stimulation; format: cell-based, rat; settings: Rattus norvegicus; [3H]-serotonin release, IgE-sensitized RBL-2H3 cells, antigen stimulation; read-out: IC50 (μM) in serotonin liberation from RBL-2H3 cells
How it was run: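 Rat RBL-2H3 cells labelled with [3H]-serotonin and sensitized with IgE simultaneously, incubated with compound, then challenged with specific antigen. Inhibition derived from [3H]-serotonin released into medium relative to release without compound.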

[1] = target: T1, tyrosine kinase of 72 kDa (Rattus norvegicus, UniProt Q64725); test: Inhibition of activation (phosphorylation) of tyrosine kinase of 72 kDa due to antigenic stimulation in RBL-2H3 cells; format: cell-based
T1 construct: endogenous in cells; host or cells: RBL-2H3 cells
T1 sequence (Q64725 whole entry): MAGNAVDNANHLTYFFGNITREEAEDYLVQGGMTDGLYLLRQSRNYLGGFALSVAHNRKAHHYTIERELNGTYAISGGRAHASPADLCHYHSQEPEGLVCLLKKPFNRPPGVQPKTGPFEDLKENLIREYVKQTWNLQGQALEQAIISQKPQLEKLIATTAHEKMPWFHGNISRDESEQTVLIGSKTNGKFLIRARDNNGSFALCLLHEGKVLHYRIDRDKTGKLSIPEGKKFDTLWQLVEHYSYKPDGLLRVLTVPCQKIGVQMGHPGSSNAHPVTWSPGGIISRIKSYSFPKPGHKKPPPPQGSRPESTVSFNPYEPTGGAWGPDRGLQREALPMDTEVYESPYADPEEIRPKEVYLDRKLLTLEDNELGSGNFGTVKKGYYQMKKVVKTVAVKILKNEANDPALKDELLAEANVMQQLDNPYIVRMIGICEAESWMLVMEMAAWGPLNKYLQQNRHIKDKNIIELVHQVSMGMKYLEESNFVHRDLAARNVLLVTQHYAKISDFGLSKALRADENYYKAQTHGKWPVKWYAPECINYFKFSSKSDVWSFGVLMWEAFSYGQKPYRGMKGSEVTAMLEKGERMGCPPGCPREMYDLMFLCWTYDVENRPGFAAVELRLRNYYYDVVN
Procedure: RBL-2H3 cells were incubated for 10 min together with a test compound in a PBS buffer containing 0.1% of BSA and 1 mM of calcium. Next, the cells were reacted with an antigen specific for the IgE receptor for 10 min. After the completion of the antigenic stimulation, the cells were allowed to stand in ice for 1 hr in a 10 mM phosphate buffer (pH 7.5) containing a lysis buffer (1% Triton X-100, 0.1% SDS, 0.5% sodium deoxycholate, 50 mM NaCl, 50 mM NaF, 1 mM phenylmethyl sulfonyl fluoride, 50 μg/ml eupeptin, 10 unit/ml aprotonin) and 0.1% of NaN3 followed by centrifugation to give a cell lysate. This lysate was diluted with a buffer for electrophoresis, heated (95° C., 5 min) and then electrophoresed on a 10% SDS-polyacrylamide gel. After the electrophoresis, the sample was electrically transcribed onto a 0.2 μm nitrocellulose membrane and treated with an anti-phosphotyrosine antibody for 1 hr. Then the inhibitory activity was evaluated by the coloring analysis through chemiluminescence.

human basophils = test: Inhibition of mediator (histamine, peptide leukotriene) liberation from human basophils stimulated with mite antigen; format: cell-based; settings: enzyme immunoassay
How it was run: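 Dextran-separated leukocyte fraction containing basophils from heparinized human blood, in D-PBS(+) with 0.1% BSA, pretreated with compound 15 min at 37 °C, then challenged with mite antigen for 10 min. Released histamine and peptide leukotrienes in supernatant quantified by enzyme immunoassay.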

[2] = histamine, read-out: IC50 (μM) in mediator liberation from human basophils: histamine
[3] = peptide leukotriene, read-out: IC50 (μM) in mediator liberation from human basophils: leukotriene

Inhibitory Strength (%) ([1]; Conc. of Compd. 3 μM)	Inhibitory Strength (%) ([1]; Conc. of Compd. 10 μM)	Inhibitory Strength (%) ([1]; Conc. of Compd. 30 μM)	SMILES	IC50 (RBL-2H3 cells) [µM]	IC50 (human basophils; [2]) [µM]	IC50 (human basophils; [3]) [µM]
100			Cc1ccc2c(c1C)N(CCCN)c1ccccc1[S+]2[O-] (stereo not shown) [Example 8, 1,2-Dimethyl-10-(3-aminopropyl)phenothiazine-5-oxide]	0.1		
100			Cc1ccc2c(c1C)N(CCCNCc1ccccc1)c1cc(CCO)ccc1[S+]2[O-] (stereo not shown) [Example 94]	< 1	30 to 100	10
100			Cc1ccc2c(c1C)N(CCCN1CCCCC1)c1ccccc1[S+]2[O-] (stereo not shown) [Example 104]	< 3		
100			Cc1ccc2c(c1C)N(CCCN(CCO)Cc1ccccc1)c1ccccc1[S+]2[O-] (stereo not shown) [Example 105]	2	30	10 to 30
	80		Cc1ccc2c(c1C)N(CCCN1CCN(S(=O)(=O)c3ccccc3)CC1)c1ccccc1[S+]2[O-] (stereo not shown) [Example 115]	3	30 to 100	10
		100	Cc1ccc2c(c1C)N(CCCNc1ccccc1)c1ccccc1[S+]2[O-] (stereo not shown) [Example 123]	3	30	10 to 30
100			Cc1ccc2c(c1C)N(CCCN1CCC(C(=O)O)CC1)c1ccccc1[S+]2[O-] (stereo not shown) [Example 129]	< 1		
100			Cc1ccc2c(c1C)N(CCCN(CC(=O)O)CC(=O)O)c1ccccc1[S+]2[O-] (stereo not shown) [Example 132]	2		
	100		Cc1ccc2c(c1C)N(C/C=C/CNCc1ccccc1)c1ccccc1[S+]2[O-] (stereo not shown) [Example 138, 1,2-Dimethyl-10-[4-benzylamino(2-butenyl)]phenothiazine-5-oxide]	3	10 to 30	10
	100		Cc1ccc2c(c1C)N(CCCCNCc1ccccc1)c1ccccc1[S+]2[O-] (stereo not shown) [Example 139]	2	30 to 100	10 to 30
			Cc1ccc2c(c1C)N(CCNCc1ccccc1O)c1ccccc1[S+]2[O-] (stereo not shown) [Example 144]	8	10 to 30	10 to 30
			Cc1ccc2c(c1C)N(CCNCc1cccc(C)c1O)c1ccccc1[S+]2[O-] (stereo not shown) [Example 145]	6	10 to 30	< 10
			Cc1ccc2c(c1C)N(CCNCc1cc(Cl)cc(Cl)c1O)c1ccccc1[S+]2[O-] (stereo not shown) [Example 146]	3	< 10	< 10
			Cc1ccc2c(c1C)N(CCNCc1cccc(C(C)C)c1O)c1ccccc1[S+]2[O-] (stereo not shown) [Example 147]	3	10	< 10
			Cc1ccc2c(c1C)N(CCNCc1c(O)cccc1O)c1ccccc1[S+]2[O-] (stereo not shown) [Example 150]	1	10 to 30	3 to 10
			COCc1cccc(CNCCN2c3ccccc3[S+]([O-])c3ccc(C)c(C)c32)c1O (stereo not shown) [Example 151]	2	10 to 30	3 to 10
			Cc1ccc2c(c1C)N(CCNCc1cccc(CO)c1O)c1ccccc1[S+]2[O-] (stereo not shown) [Example 152]	1	3 to 10	< 3
			COc1cccc(CNCCN2c3ccccc3[S+]([O-])c3ccc(C)c(C)c32)c1O (stereo not shown) [Example 154]	6	10 to 30	< 10
			COc1ccccc1CNCCN1c2ccccc2[S+]([O-])c2ccc(C)c(C)c21 (stereo not shown) [Example 155]	4	30 to 100	10 to 30
			Cc1ccc2c(c1C)N(CCNCc1ccccc1CO)c1ccccc1[S+]2[O-] (stereo not shown) [Example 156]	3	10	10
			Cc1ccc2c(c1C)N(CCNCc1ccccc1OCCO)c1ccccc1[S+]2[O-] (stereo not shown) [Example 157]	1	30 to 100	10 to 30
			Cc1ccc2c(c1C)N(CCNCc1ncc[nH]1)c1ccccc1[S+]2[O-] (stereo not shown) [Example 162]	1	30 to 100	< 10
			Cc1ccc2c(c1C)N(CCNCc1cccc(C(F)(F)F)c1O)c1ccccc1[S+]2[O-] (stereo not shown) [Example 163]	3	10 to 30	10
			Cc1ccc2c(c1C)N(CCCN(C)Cc1ccc(O)cc1)c1ccccc1[S+]2[O-] (stereo not shown) [Example 165]	0.3	10 to 30	3 to 10

Inhibitory Strength (%) ([1]; Conc. of Compd. 3 μM)	Inhibitory Strength (%) ([1]; Conc. of Compd. 10 μM)	Inhibitory Strength (%) ([1]; Conc. of Compd. 30 μM)	SMILES	IC50 (RBL-2H3 cells) [µM]	IC50 (human basophils; [2]) [µM]	IC50 (human basophils; [3]) [µM]
			Cc1ccc2c(c1C)N(CCCN(C)Cc1cccc(O)c1)c1ccccc1[S+]2[O-] (stereo not shown) [Example 166]	0.5	10 to 30	3 to 10
			Cc1ccc2c(c1C)N(CCCN(C)Cc1cccc(C)c1O)c1ccccc1[S+]2[O-] (stereo not shown) [Example 168]	2	< 10	< 10
			COc1cccc(CN(C)CCCN2c3ccccc3[S+]([O-])c3ccc(C)c(C)c32)c1O (stereo not shown) [Example 169]	0.5	30 to 100	10 to 30
			COc1cccc(OC)c1CN(C)CCCN1c2ccccc2[S+]([O-])c2ccc(C)c(C)c21 (stereo not shown) [Example 170]	0.5	10 to 30	3
			Cc1ccc2c(c1C)N(CCCN(C)Cc1cc(O)ccc1O)c1ccccc1[S+]2[O-] (stereo not shown) [Example 171]	0.8	3 to 10	3 to 10
			Cc1ccc2c(c1C)N(CCCN(C)Cc1ccccc1OCCO)c1ccccc1[S+]2[O-] (stereo not shown) [Example 173]	0.3	30	10
			Cc1ccc2c(c1C)N(CCCN(C)Cc1c(O)ccc(C)c1O)c1ccccc1[S+]2[O-] (stereo not shown) [Example 174]	0.5	10 to 30	10
			COc1cc(C)c(O)c(CN(C)CCCN2c3ccccc3[S+]([O-])c3ccc(C)c(C)c32)c1O (stereo not shown) [Example 175]	0.8	30 to 100	10
			COc1ccc(CN(C)CCCN2c3ccccc3[S+]([O-])c3ccc(C)c(C)c32)o1 (stereo not shown) [Example 176]	2	30 to 100	10 to 30
			Cc1ccc2c(c1C)N(CCCN(C)Cc1ccc(CO)o1)c1ccccc1[S+]2[O-] (stereo not shown) [Example 177]	1	10	< 3
			COc1cccc(CN(C)CCN2c3ccccc3[S+]([O-])c3ccc(C)c(C)c32)c1O (stereo not shown) [Example 180]	2	30 to 100	3 to 10
			Cc1ccc2c(c1C)N(CCN(C)Cc1cccc(C)c1O)c1ccccc1[S+]2[O-] (stereo not shown) [Example 181]	2	10 to 30	< 10
			COc1ccccc1CN(C)CCN1c2ccccc2[S+]([O-])c2ccc(C)c(C)c21 (stereo not shown) [Example 182]	2	30 to 100	10 to 30
			Cc1ccc2c(c1C)N(CCN(C)Cc1ccccc1OCCO)c1ccccc1[S+]2[O-] (stereo not shown) [Example 183]	3	30 to 100	10 to 30
			Cc1ccc2c(c1C)N(CCN(C)Cc1cccc(CO)c1O)c1ccccc1[S+]2[O-] (stereo not shown) [Example 185]	0.5	10 to 30	< 3
			Cc1ccc2c(c1)N(CCCN(C)Cc1ccccc1O)c1c(ccc(C)c1C)[S+]2[O-] (stereo not shown) [Example 188]	1	10	3 to 10
			COc1ccc2c(c1)N(CCCN(C)Cc1ccccc1O)c1c(ccc(C)c1C)[S+]2[O-] (stereo not shown) [Example 189]	0.8	3 to 10	3 to 10
			Cc1ccc2c(c1C)N(CCCN(C)Cc1ccccc1)c1cc(-c3nnn(C)n3)ccc1[S+]2[O-] (stereo not shown) [Example 190]	0.5	3	10
			Cc1ccc2c(c1C)N(CCN(CCO)Cc1ccccc1)c1ccccc1[S+]2[O-] (stereo not shown) [Example 193]	2	30	10
			Cc1ccc2c(c1C)N(CCNCc1ccc(S(N)(=O)=O)cc1)c1ccccc1[S+]2[O-] (stereo not shown) [Example 195]	0.5	30 to 100	10 to 30
		30	Cc1ccc2c(c1C)N(CCCN)c1ccccc1S2(=O)=O [Example 196, 1,2-Dimethyl-10-(3-aminopropyl)phenothiazine-5,5-dioxide]	5		
		70	Cc1ccc2c(c1C)N(CCCNCc1ccccc1)c1ccccc1S2(=O)=O [Example 200]	0.4		
70			Cc1ccc2c(=NOC(C)C(=O)O)c3ccccc3n(CCCNCc3ccccc3)c2c1C (stereo not shown) [Example 236]	1		
		100	Cc1ccc2c(c1C)N(CCCNCc1ccccc1)c1cccc(CC(=O)O)c1[S+]2[O-] (stereo not shown) [Example 262]	8		
